Read-outs that look alike come from different tables or passages of the source.

The subject of series [1] is Hs68 cells. As to the kind of experiment: MTT cell viability of Hs68 cells with or without LED light. The format is cell-based, human. To be noted: for IC50: Homo sapiens, light or radiation study, Hs68 cells; for cytotoxicity for Hs68 cells: dark, up to 1000 nM. Here is the method:
Data were represented as mean ± SD from at least three independent experiments and analyzed by one-way ANOVA with Tukey’s post hoc test, * p < 0.01, compared with vehicle-treated control.
Hs68 and BALB/c 3T3 cell viability was measured using a 3-[4,5-dimethylthylthiazol-2-yl]-2,5 diphenyl tetrazolium bromide (MTT) assay. The cells were cultured in 24-well plates at a density of 3 × 10^4 cells per well or BALB/c 3T3 cells at a density of 1 × 10^4 cells per well. […] The Hs68 cells were then exposed to LED light (660 nm; 89 W/m^2; 20 J/cm^2) for 37 min 27 s and incubated for 3 h. […] The cells were washed and treated with MTT, after which the plates were incubated at 37 °C in the dark for 2 h. After the formation of formazan, 100 µL of DMSO was added, and the absorbance was measured at 570 nm using a microtiter plate reader (Thermo-scientific, Skanlt software 5.0, Waltham, MA, USA)

Series [2] in a line: ABTS radical scavenging activity. The format is biochemical. As to the method:
[…] in 2.5 mM potassium persulfate for more than 16 h to develop 7 mM 2,2′-azinobis-(3-ethylbenzothiazoline-6-sulfonic acid diammonium salt) (ABTS), and ethanol was diluted to obtain an absorbance of 0.3 at 620 nm. Each composite sample was diluted by concentration, and 100 μL of the sample was put into each well along with 50 μL each of ABTS reagent and solvent; reacted at room temperature for 10 min, and absorbance was measured at 620 nm. ABTS activity inhibition (%) = 100 − [test group-blank]/(control group-blank) × 100]

Series [3] in a line: ORAC (oxygen radical absorbance capacity) assay. To be noted: Trolox equivalent. The format is biochemical. As to the method:
The ORAC assay is based on the scavenging of peroxyl radicals generated by 2,2′-azobis(2-methylpropioamidine) dihydrochloride (AAPH), which prevents the degradation of the fluorescein probe. The ORAC values were calculated as the area under the curve (AUC) and expressed as µM of Trolox equivalent (TE).

Series [4] has as its system MMP-2. As to the kind of experiment: Gelatin zymography of MMP-2 in UVB-exposed Hs68 cells. The following applies: UVB 200 mJ/cm^2, LED 20 J/cm^2, Hs68. The format is cell-based, human. The text has this:
Since MMP-2 is a […] that plays an important role in photoaging, we examined the effect of Ce6-curcumin derivatives and LED treatment on the enzyme activities of UV-induced MMP-2 by gelatin zymography. On gelatin zymography, UVB irradiation led to the activation of MMP-2 in Hs68 cells, and this increase was inhibited by Ce6-curcumin derivatives along with LED treatments. On increasing the dose of the Ce6-curcumin derivatives, the MMP-2 was decreased (Figure 7A–C).
Data are expressed as mean ± SD from at least three independent experiments and were analyzed by one-way ANOVA with Tukey’s post hoc test, * p < 0.01 compared with control. ^# p < 0.05 compared with the UVB and LED-treated groups.
MMP-2 activity in cell culture medium was evaluated by gelatin zymography assay as described. After UVB (200 mJ/cm^2) irradiation, Hs68 cells were cultured for 24 h. Ce6-curcumin derivatives were diluted into a medium containing 1% FBS and cultured for 30 min. After 30 min, the LED was irradiated with 20 J/cm^2, cultured for 3 h, washed with 1× PBS, and 300 μL of FBS-free medium was added and cultured for 44 h. […] The activity of MMPs was measured by quantifying the transparent band by proteolytic activity after staining with Coomassie Brilliant Blue staining solution and further distaining with water, methanol, and acetic acid (50:40:10).

For series [5], the system named is p-ERK, p-p38, JNK MAPK, p-NF-κB p65, p-c-JUN. As to the kind of experiment: Western blot of MAPK, NF-κB and c-JUN signaling in UVB-induced 3T3 fibroblasts. To be noted: 3T3 cells; for phosphorylation level of JNK MAPK / phosphorylation levels of ERK and p38 MAPKs: PDT after UVB treatment. Format: cell-based, mouse. The text has this:
One of the major factors of UVB-induced skin aging is inflammation-mediated skin aging. In UVB-induced skin photoaging, increased intracellular ROS can promote MMP production by activating the MAPK, AP-1, and NF-κB pathways. […] Ce6-diPEG-curcumin-PDT and Ce6-propane-curcumin-PDT lowered the phosphorylation levels of ERK and p38 MAPKs but not those of JNK MAPK.
Figure 9 Effect of Ce6-curcumin derivatives-PDT on MAPK, NF-κB and c-JUN signaling proteins. Protein expressions of p-p38, p-38, p-ERK, ERK, p-c-JUN, c-JUN, p-p65 and p65 in the UVB-induced murine 3T3 fibroblast cell line after Ce6-diPEG-curcumin (150 and 200 μΜ) and Ce6-propane-curcumin (75 and 100 μΜ)-PDT treatment. Representative bars are expressed as mean only.
The cells were lysed with RIPA lysis buffer containing protease inhibitor cocktails (Gen-DEPOT, Katy, TX, USA). Cell lysates were vortexed and centrifuged at 13,000 rpm for 15 min at 4 °C. Protein concentration was determined using the Bradford protein assay kit, and the same amount of protein was separated by SDS-PAGE gel. Then, proteins were transferred to a polyvinylidene fluoride (PVDF) membrane. Further, the membranes were blocked with a blocking solution containing 5% skim milk in Tris-buffered saline containing Tween 20 (TBST) for 1 h and incubated overnight with the primary antibody diluted in 5% skim milk in TBST at 4 °C. Then, the membrane was rinsed with TBST for 30 min and incubated with horseradish peroxidase-conjugated secondary antibodies in a blocking solution for 1 h. All bands were visualized by using an enhanced chemiluminescence (ECL) kit (Pierce, Rockford, IL, USA) under a luminescent image analyzer (Amersham, GE Healthcare, Chicago, IL, USA). The primary antibodies against MMP-1 were obtained from Thermo Fischer Scientific Inc. (NYSE: TMO). Antibodies directed against p-p65, p65, p-p38, p38, p-ERK, ERK, p-c-JUN, and c-JUN were purchased from Cell Signaling Technology Inc. (Beverley, MA, USA). COX-2 and β-Actin antibodies were from Santa Cruz Biotechnology (Santa Cruz, CA, USA), while TNF-α antibodies were procured from Novus Biologicals, Inc. (Centennial, CO, USA).
(In general: A western blot detects proteins with antibodies after separation by electrophoresis.)

The mark [6] stands for this setting: LED 660 nm 20 J/cm^2, MTT, read-out: Phototoxicity (IC50).
[7] abbreviates: without LED irradiation, MTT, read-out: Dark Toxicity (IC50).
[8] abbreviates: LED light, read-out: LED Condition (EC50, μM) ABTS radical scavenging.
Where [9] appears, read: dark, read-out: Dark Condition (EC50, μM) ABTS radical scavenging.

As a reminder, the IC50 is the concentration that gives 50% inhibition. A word on the EC50: it is the concentration at which the effect is half-maximal. Consider `C=Cc1c(C)c2cc3nc(c(CC(=O)OC)c4[nH]c(cc5nc(cc1[nH]2)C(C)=C5CC)c(C)c4C(=O)NCCCNC(=O)CCCC(=O)Oc1ccc(/C=C/C(=O)CC(=O)/C=C/c2ccc(O)c(OC)c2)cc1OC)C(CCC(=O)OC)C3C` (stereo not shown) [Ce6-propane-curcumin], for which the IC50 in series [1] (setting [6]) and in series [1] (setting [7]) was no less than 1000 nM in each case. In addition, the “cytotoxicity for Hs68 cells” value in series [1] is listed as “almost no cytotoxicity”. The “phototoxicity toward human dermal fibroblasts, Hs68” value in series [1] (with PDT, up to a dose of 1000 nM) is listed as “no phototoxicity”. Besides, the values for the EC50 in series [2] (setting [8]) and in series [2] (setting [9]) were 34.9 ± 8.16 µM and 18.9 ± 3.04 µM, respectively. Moreover, the “ORAC LED Condition (TE, μM)” value in series [3] (LED 20 J/cm^2, 1 μM compound) was 2.78 µM; in series [3] (LED 20 J/cm^2, 10 μM compound), 30.66 µM. Further, the results for the “ORAC Dark Condition (TE, μM)” value in series [3] (1 μM compound) and in series [3] (10 μM compound) were 20.11 µM and 26.83 µM, respectively. Moreover, the “UVB-induced MMP-2 expression (gelatin zymography)” value in series [4] (100 nM) is recorded as “significant reductions”. In addition, the “UVB-induced increases in p-NF-κB p65 and p-c-JUN” value in series [5] (75 and 100 μM followed by laser irradiation) is on record as “greatly reversed this trend”. For the same compound, in series [5], the “phosphorylation level of JNK MAPK” value is “not”. The “phosphorylation levels of ERK and p38 MAPKs” value in series [5] was “lowered”.
In the case of `C=Cc1c(C)c2cc3nc(c(CC(=O)OC)c4[nH]c(cc5nc(cc1[nH]2)C(C)=C5CC)c(C)c4C(=O)NCCCOCCOCCOCCCNC(=O)CCCC(=O)Oc1ccc(/C=C/C(=O)CC(=O)/C=C/c2ccc(O)c(OC)c2)cc1OC)C(CCC(=O)OC)C3C` (stereo not shown) [Ce6-diPEG-curcumin], the values for the IC50 in series [1] (setting [6]) and in series [1] (setting [7]) were 693 nM and no less than 1000 nM, respectively. For the same compound, in series [1], the “cytotoxicity for Hs68 cells” value was “almost no cytotoxicity”. Further, the figures for the half-maximal effective concentration (EC50) in series [2] (setting [8]) and in series [2] (setting [9]) were 22.3 ± 2.62 µM and 15.51 ± 0.01 µM, respectively. In addition, in series [2] (dark), the “ABTS EC50 value compared to the standard antioxidant 5-ALA hydrochloride” value is recorded as roughly 74%. Moreover, the “ORAC LED Condition (TE, μM)” value turned out to be 0.85 µM in series [3] (LED 20 J/cm^2, 1 μM compound) and 27.98 µM in series [3] (LED 20 J/cm^2, 10 μM compound). The “ORAC Dark Condition (TE, μM)” value in series [3] (1 μM compound) amounted to 20.85 µM; in series [3] (10 μM compound), 30.32 µM. For the same compound, in series [4] (200 nM), the “UVB-induced MMP-2 expression (gelatin zymography)” value was “highest attenuation of MMP-2 expression”. For the same compound, in series [5] (150 and 200 μM followed by laser irradiation), the “UVB-induced increases in p-NF-κB p65 and p-c-JUN” value is given as “greatly reversed this trend”. Besides, in series [5], the “phosphorylation level of JNK MAPK” value is recorded as “not”. For the same compound, the “phosphorylation levels of ERK and p38 MAPKs” value in series [5] is “lowered”.
